From publication PMC10366214, “The anti-Alzheimer potential of novel spiroindolin-1,2-diazepine derivatives as targeted cholinesterase inhibitors with modified substituents” (Scientific Reports, 2023)
“Also recorded” adds a separate entry of the source. Where two headings read alike, the source gives them in different places.

Key:
BChE [1] = biological target: T1, BChE (Homo sapiens, UniProt P06276); settings: cited from earlier work
AChE [2] = biological target: T2, AChE (Homo sapiens, UniProt P22303); settings: cited from earlier work
BChE [3] = biological target: T1, BChE; assay: BChE inhibition, modified Ellman method; format: biochemical; settings: for inhibition at 50 µM: read-out: BChE % inhibition at 50 µM
Procedure: (§1) Cholinesterase inhibitory activities of all analogs were evaluated spectrometrically using the modified Ellman method as previously reported[40],[41]. […] The absorbance of each well was measured at 415 nm using a microplate reader. IC50 values and inhibition values were calculated with the software GraphPad Prism as the mean of three independent experiments and are expressed as mean ± SEM.

[4] = system: SH-SY5Y neuroblastoma cell line; assay: MTT toxicity assay on SH-SY5Y; format: cell-based; settings: 72 h exposure; tested concentrations up to 50 µM
Procedure: SH-SY5Y cells were maintained in Dulbecco's modified Eagle medium with Ham's F12 medium (DMEM/F12) containing 15% fetal bovine serum100 units/ml penicillin and 100 µg/ml streptomycin. Cells were seeded into flasks containing supplemented medium and maintained at 37 °C in a humidified atmosphere of 5% CO2 and 95% air. Cell viability, virtually the mitochondrial activity of living cells, was measured by quantitative colorimetric assay with MTT, as described previously. MTT reagent, at a final concentration of 0.5 mg/ml, was added to each well at the end of the incubation period, and the plate was placed in a humidified incubator for an additional two h periods. Metabolically active cells convert the yellow MTT tetrazolium compound to a purple formazan product. Then, the insoluble formazan was dissolved with dimethylsulfoxide; colorimetric determination of MTT reduction was measured at 540 nm. Control cells treated media were taken as 100% viability.

AChE [5] = biological target: T2, AChE; assay: Enzyme kinetic study of AChE inhibition (Lineweaver-Burk, Ellman's method); format: biochemical
Procedure: As previously reported, the kinetic study of AChE was carried out at five different concentrations of compound 5l and acetylthiocholine substrate (0.1–1 mM) by Ellman's method.

AChE [6] = biological target: T2, AChE; assay: biochemical; settings: for inhibition at 50 µM: read-out: AChE % inhibition at 50 µM
Procedure: as §1

[7] = 50 µM, mean ± S.E of three to five independent experiments

T1 sequence (P06276 29-602): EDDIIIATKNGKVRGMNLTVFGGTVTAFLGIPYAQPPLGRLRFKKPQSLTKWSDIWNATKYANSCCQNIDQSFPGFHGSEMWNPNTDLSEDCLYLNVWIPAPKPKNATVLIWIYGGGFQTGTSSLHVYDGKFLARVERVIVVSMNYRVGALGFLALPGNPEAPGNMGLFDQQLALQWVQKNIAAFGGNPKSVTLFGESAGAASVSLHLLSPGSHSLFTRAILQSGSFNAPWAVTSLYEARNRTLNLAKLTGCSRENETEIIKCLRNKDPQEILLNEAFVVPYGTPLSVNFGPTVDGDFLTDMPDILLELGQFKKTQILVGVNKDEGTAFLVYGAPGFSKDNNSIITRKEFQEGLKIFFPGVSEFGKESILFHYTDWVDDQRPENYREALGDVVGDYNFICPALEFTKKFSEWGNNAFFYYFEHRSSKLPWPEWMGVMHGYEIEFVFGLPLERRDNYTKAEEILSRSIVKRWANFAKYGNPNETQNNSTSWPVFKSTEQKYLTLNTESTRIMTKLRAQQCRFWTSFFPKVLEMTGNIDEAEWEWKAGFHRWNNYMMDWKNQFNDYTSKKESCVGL
T2 sequence (P22303 32-614): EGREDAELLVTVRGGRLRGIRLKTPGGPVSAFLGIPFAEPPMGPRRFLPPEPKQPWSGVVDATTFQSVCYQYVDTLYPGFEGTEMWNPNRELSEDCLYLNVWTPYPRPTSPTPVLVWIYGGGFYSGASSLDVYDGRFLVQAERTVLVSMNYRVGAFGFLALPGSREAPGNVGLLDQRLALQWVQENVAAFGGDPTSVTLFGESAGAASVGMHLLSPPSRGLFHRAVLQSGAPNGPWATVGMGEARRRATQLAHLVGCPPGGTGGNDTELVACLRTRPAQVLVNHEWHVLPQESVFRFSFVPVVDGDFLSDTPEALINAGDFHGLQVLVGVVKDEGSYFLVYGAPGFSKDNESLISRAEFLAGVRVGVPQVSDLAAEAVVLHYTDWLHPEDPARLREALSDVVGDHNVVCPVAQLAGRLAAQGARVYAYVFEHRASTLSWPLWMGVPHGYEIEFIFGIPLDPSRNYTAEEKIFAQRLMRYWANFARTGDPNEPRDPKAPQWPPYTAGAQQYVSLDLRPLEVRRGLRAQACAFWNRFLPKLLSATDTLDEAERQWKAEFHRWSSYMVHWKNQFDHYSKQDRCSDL

Structure (SMILES): O=C(CC1(O)C(=O)N(Cc2ccccc2)c2ccccc21)c1ccc(Br)cc1Br (stereo not drawn) [compound C]
- IC50 (BChE [1]): 65 ± 8 nM
- IC50 (AChE [2]): 28 ± 3 nM

Structure (SMILES): N#CC1=C(N)NNC(Nc2ccc(O)cc2)=C([N+](=O)[O-])C12C(=O)Nc1ccc([N+](=O)[O-])cc12 (stereo not drawn) [Compound 5l, 3-amino-7-((4-hydroxyphenyl)amino)-5',6-dinitro-2'-oxo-1,2-dihydrospiro[[1,2]diazepine-5,3'-indoline]-4-carbonitrile]
- inhibition against BChE (in words) (BChE [3]): no significant inhibition; also recorded: inactive
- inhibition at 50 µM (BChE [3]): 5.71 ± 2.82%
- toxicity against SH-SY5Y (MTT cell viability) [4]: no toxicity; also recorded: did not show neurotoxicity
- mode of AChE inhibition (AChE [5]; Lineweaver-Burk plot): mixed mode; also recorded: mix type inhibitor; also recorded: mix-type inhibition
- Ki (AChE [5]; five inhibitor concentrations (1, 4, 8, 12, 24 µM), acetylthiocholine 0.1-1 mM, read-out: inhibition constant Ki against AChE): 44 nM
- IC50 (AChE [6]): 3980 ± 1070 nM
- inhibition at 50 µM (AChE [6]): 87.4 ± 5.93%

Structure (SMILES): Cc1ccc(Cn2cc(COc3cccc(C4Nc5ccccc5NC5=C4C(=O)CC(C)(C)C5)c3)nn2)cc1 (stereo not drawn) [compound E]
- IC50 (BChE [1]): 200 ± 2 nM
- AChE Inhibition % at 30 μM (AChE [2]; 30 μM): 12.9%

Structure (SMILES): Cc1ccc(NC2=C([N+](=O)[O-])C3(C(=O)Nc4ccc([N+](=O)[O-])cc43)C(C#N)=C(N)NN2)cc1C (stereo not drawn) [Compound 5h, 3-amino-7-((3,4-dimethylphenyl)amino)-5',6-dinitro-2'-oxo-1,2-dihydrospiro[[1,2]diazepine-5,3'-indoline]-4-carbonitrile]
- BChE % inhibition at 50 µM (BChE [3]; [7]): Not active
- inhibition at 50 µM (AChE [6]): 48.6 ± 2.7%

Structure (SMILES): N#CC1=C(N)NNC(Nc2cccc(O)c2)=C([N+](=O)[O-])C12C(=O)Nc1c(C(F)(F)F)cccc12 (stereo not drawn) [Compound 5u, 3-amino-7-((3-hydroxyphenyl)amino)-6-nitro-2'-oxo-7'-(trifluoromethyl)-1,2-dihydrospiro[[1,2]diazepine-5,3'-indoline]-4-carbonitrile]
- inhibition at 50 µM (BChE [3]; [7]): 10.4 ± 1.07%
- inhibition at 50 µM (AChE [6]; [7]): 16.4 ± 0.53%

Structure (SMILES): O=C1Nc2ccccc2/C1=C\c1cc[n+](Cc2ccccc2Cl)cc1 [compound B]
- IC50 (BChE [1]): 1370 nM
- IC50 (AChE [2]): 0.44 nM
- fold more potent than donepezil (AChE) (AChE [2]; versus donepezil as reference drug): 32 fold
